Experimental data reported in PubChem BioAssay AID330 (DTP/NCI, 2004).
Several values for one entry are separate records, joined by “and”; a condition that tells them apart may be missing. Equal values may be shown once. Inconclusive results and toxic doses are left out. Rule for the calls: active = survival T/C of 150% or more; inactive = T/C below 125% in these data.

Tested on: P388 leukemia ip, CD2F1 mice, survival T/C
Assay: NCI In Vivo Anticancer Drug Screen. Data for tumor model P388 Leukemia (intraperitoneal) in CD2F1 (CDF1) mice
Conditions: endpoint: median survival time, higher = longer survival
Outline: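 Mice carrying the transplanted tumor received test compound or vehicle. Survival was recorded in each group, and the value is the treated-group measurement divided by that of the vehicle-treated control group.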

[1] = dose: 50.0 mg/kg/injection, schedule: Q01DX009 (ip), vehicle: saline with Tween-80
[2] = dose: 100.0 mg/kg/injection, schedule: Q01DX009 (ip), vehicle: saline with Tween-80
[3] = dose: 200.0 mg/kg/injection, schedule: Q01DX009 (ip), vehicle: saline with Tween-80
[4] = dose: 50.0 mg/kg/injection, schedule: Q01DX009 (ip), vehicle: Klucel (hydroxypropylcellulose) (HPC)
[5] = dose: 100.0 mg/kg/injection, schedule: Q01DX009 (ip), vehicle: Klucel (hydroxypropylcellulose) (HPC)
[6] = dose: 120.0 mg/kg/injection, schedule: Q01DX005 (ip), vehicle: saline with Tween-80
[7] = dose: 240.0 mg/kg/injection, schedule: Q01DX005 (ip), vehicle: saline with Tween-80
[8] = dose: 25.0 mg/kg/injection, schedule: Q01DX009 (ip), vehicle: saline
[9] = dose: 50.0 mg/kg/injection, schedule: Q01DX009 (ip), vehicle: suspension in saline
[10] = dose: 100.0 mg/kg/injection, schedule: Q01DX009 (ip), vehicle: suspension in saline
[11] = dose: 200.0 mg/kg/injection, schedule: Q01DX009 (ip), vehicle: suspension in saline
[12] = dose: 12.5 mg/kg/injection, schedule: Q01DX009 (ip), vehicle: saline with Tween-80
[13] = dose: 25.0 mg/kg/injection, schedule: Q01DX009 (ip), vehicle: saline with Tween-80
[14] = dose: 50.0 mg/kg/injection, schedule: Q01DX009 (ip), vehicle: saline
[15] = dose: 200.0 mg/kg/injection, schedule: Q01DX009 (ip), vehicle: saline
[16] = dose: 50.0 mg/kg/injection, schedule: Q01DX005 (ip), vehicle: saline with Tween-80
[17] = dose: 100.0 mg/kg/injection, schedule: Q01DX005 (ip), vehicle: saline with Tween-80
[18] = dose: 50.0 mg/kg/injection, schedule: Q01DX005 (ip), vehicle: Klucel (hydroxypropylcellulose) (HPC)
[19] = dose: 100.0 mg/kg/injection, schedule: Q01DX005 (ip), vehicle: Klucel (hydroxypropylcellulose) (HPC)
[20] = dose: 60.0 mg/kg/injection, schedule: Q01DX005 (ip), vehicle: saline
[21] = dose: 120.0 mg/kg/injection, schedule: Q01DX005 (ip), vehicle: saline

Measured: T/C

CC1=CC(=O)C2C(CC1)C2(C)C (centres undefined)
inactive: dose: 100.0 mg/kg/injection, schedule: Q04DX003 (ip), vehicle: saline + Tween-80 + alcohol 102 % of control | dose: 200.0 mg/kg/injection, schedule: Q04DX003 (ip), vehicle: saline + Tween-80 + alcohol 95 % of control | dose: 400.0 mg/kg/injection, schedule: Q04DX003 (ip), vehicle: saline + Tween-80 + alcohol 91 % of control

CC(=O)OC1OC(C(OC(C)=O)C(Cl)Cl)OC1C(Cl)Cl (centres undefined)
inactive: [1] 97 % of control | [2] 105 % of control | [3] 112 % of control

CC1(C)C(c2ccccc2)CC(c2cccc(O)c2)=[N+]1[O-] (centres undefined)
inactive: [4] 97 % of control | [5] 97 % of control | dose: 200.0 mg/kg/injection, schedule: Q01DX009 (ip), vehicle: Klucel (hydroxypropylcellulose) (HPC) 101 % of control

COc1ccc(-c2cc(-c3ccccc3)[nH]c(=O)c2C#N)cc1
inactive: dose: 12.5 mg/kg/injection, schedule: Q01DX009 (ip), vehicle: acid diluted with saline 101 % of control | dose: 25.0 mg/kg/injection, schedule: Q01DX009 (ip), vehicle: acid diluted with saline 99 % of control | dose: 50.0 mg/kg/injection, schedule: Q01DX009 (ip), vehicle: acid diluted with saline 101 % of control

O=C(NC1CCCCC1)OCc1c(COC(=O)NC2CCCCC2)c2cccn2c2c1cnn2-c1ccccc1
inactive: dose: 15.0 mg/kg/injection, schedule: Q01DX005 (ip), vehicle: saline with Tween-80 93 % of control | dose: 30.0 mg/kg/injection, schedule: Q01DX005 (ip), vehicle: saline with Tween-80 88 % of control and 89 % of control | [6] 92 % of control and 96 % of control | [7] 99 % of control

CCOc1ccc(NS(=O)(=O)c2ccc(N)cc2)cc1CN(CCCl)CCCl
inactive: dose: 100.0 mg/kg/injection, schedule: Q01DX001 (ip), vehicle: saline with Tween-80 99 % of control | dose: 200.0 mg/kg/injection, schedule: Q01DX001 (ip), vehicle: saline with Tween-80 99 % of control | dose: 400.0 mg/kg/injection, schedule: Q01DX001 (ip), vehicle: saline with Tween-80 93 % of control

c1cc2c(cc1CN1CCOCC1)CCc1cc(CN3CCOCC3)ccc1N2
inactive: dose: 15.0 mg/kg/injection, schedule: Q01DX005 (ip), vehicle: Klucel (hydroxypropylcellulose) (HPC) 101 % of control | dose: 30.0 mg/kg/injection, schedule: Q01DX005 (ip), vehicle: Klucel (hydroxypropylcellulose) (HPC) 100 % of control | dose: 60.0 mg/kg/injection, schedule: Q01DX005 (ip), vehicle: Klucel (hydroxypropylcellulose) (HPC) 94 % of control and 95 % of control

CCCCn1ccnc1C
inactive: dose: 6.25 mg/kg/injection, schedule: Q01DX009 (ip), vehicle: saline 109 % of control | dose: 12.5 mg/kg/injection, schedule: Q01DX009 (ip), vehicle: saline 91 % of control | [8] 103 % of control

CC1(C)CNC(=S)N1C1CCCCC1
inactive: [9] 97 % of control | [10] 104 % of control | [11] 93 % of control

O=c1[nH]c2ccc(Br)cc2c(=O)o1
inactive: [12] 104 % of control | [13] 102 % of control | [1] 110 % of control | dose: 100.0 mg/kg/injection, schedule: Q01DX001 (ip), vehicle: other 100 % of control | [2] 114 % of control | dose: 200.0 mg/kg/injection, schedule: Q01DX001 (ip), vehicle: other 100 % of control | dose: 400.0 mg/kg/injection, schedule: Q01DX001 (ip), vehicle: other 95 % of control

C=CC(=NC(C)(C)C)Nc1ccc(OC)cc1
inactive: [1] 112 % of control | [2] 112 % of control

O=C(O)C1C2OC2C2OC2C1C(=O)O (centres undefined)
inactive: dose: 25.0 mg/kg/injection, schedule: Q01DX001 (ip), vehicle: Klucel (hydroxypropylcellulose) (HPC) 89 % of control | dose: 50.0 mg/kg/injection, schedule: Q01DX001 (ip), vehicle: Klucel (hydroxypropylcellulose) (HPC) 92 % of control | dose: 100.0 mg/kg/injection, schedule: Q01DX001 (ip), vehicle: Klucel (hydroxypropylcellulose) (HPC) 88 % of control

CC(=O)OC(OC(C)=O)c1ccc([N+](=O)[O-])s1
inactive: [4] 109 % of control | [5] 87 % of control

O=c1[nH]c2ccccc2[nH]c1=O
inactive: [14] 100 % of control | [2] 94 % of control | [3] 92 % of control | [15] 100 % of control and 97 % of control | dose: 400.0 mg/kg/injection, schedule: Q01DX009 (ip), vehicle: saline 88 % of control

CCOc1cc2c(=O)[nH]cnc2c(OCC)c1OCC
inactive: [1] 106 % of control | [2] 100 % of control | [3] 98 % of control

OC(CCl)Cn1nnc2ccccc21 (centres undefined)
inactive: [16] 103 % of control | [17] 100 % of control | dose: 100.0 mg/kg/injection, schedule: Q04DX003 (ip), vehicle: saline with Tween-80 93 % of control | dose: 200.0 mg/kg/injection, schedule: Q01DX005 (ip), vehicle: saline with Tween-80 94 % of control | dose: 200.0 mg/kg/injection, schedule: Q04DX003 (ip), vehicle: saline with Tween-80 98 % of control | dose: 400.0 mg/kg/injection, schedule: Q04DX003 (ip), vehicle: saline with Tween-80 99 % of control

CC(=O)NC1C(S[As](C)C)OC(COC(C)=O)C(OC(C)=O)C1OC(C)=O (centres undefined)
inactive: [12] 102 % of control | [13] 113 % of control | [1] 116 % of control | [3] 115 % of control

CCOC(=O)C1=C(C(=O)c2ccc(C)cc2)C(c2cccc([N+](=O)[O-])c2)C(C(=O)c2ccc(C)cc2)=C(C(=O)OCC)N1
inactive: dose: 60.0 mg/kg/injection, schedule: Q01DX005 (ip), vehicle: saline with Tween-80 103 % of control | [6] 93 % of control | [7] 111 % of control

C1=C(/N=NNc2ccccc2)CCCCCC/1
inactive: dose: 50.0 mg/kg/injection, schedule: Q01DX005 (ip), vehicle: Klucel + Tween-80 102 % of control | dose: 100.0 mg/kg/injection, schedule: Q01DX005 (ip), vehicle: Klucel + Tween-80 100 % of control | dose: 200.0 mg/kg/injection, schedule: Q01DX005 (ip), vehicle: Klucel + Tween-80 104 % of control

Cc1ncc(N)c(C(=O)O)n1
inactive: [18] 98 % of control | [19] 98 % of control

O=C(c1ccccc1)C1C(=O)c2ccccc2C1=O
inactive: [20] 95 % of control | [21] 99 % of control | dose: 240.0 mg/kg/injection, schedule: Q01DX005 (ip), vehicle: saline 95 % of control

CC1(/C=C/Cl)CC(Cl)(CBr)C(Cl)CC1Cl (centres undefined)
inactive: dose: 8.75 mg/kg/injection, schedule: Q01DX005 (ip), vehicle: Klucel (hydroxypropylcellulose) (HPC) 97 % of control | dose: 17.5 mg/kg/injection, schedule: Q01DX005 (ip), vehicle: Klucel (hydroxypropylcellulose) (HPC) 91 % of control | dose: 35.0 mg/kg/injection, schedule: Q01DX005 (ip), vehicle: Klucel (hydroxypropylcellulose) (HPC) 97 % of control | dose: 70.0 mg/kg/injection, schedule: Q01DX005 (ip), vehicle: Klucel (hydroxypropylcellulose) (HPC) 91 % of control

COc1ccc(C2c3cc(OC(C)=O)c(OC)cc3Oc3cc(OC)c(OC(C)=O)cc32)cc1
inactive: [18] 96 % of control | [19] 93 % of control | dose: 200.0 mg/kg/injection, schedule: Q01DX005 (ip), vehicle: Klucel (hydroxypropylcellulose) (HPC) 87 % of control

O=C1OC(C2=CC(=O)c3ccccc3C2=O)C(Cl)=C1Cl (centres undefined)
inactive: [16] 121 % of control | [17] 109 % of control

CN(CCO)C1=CC(=O)C(N2c3ccccc3Nc3cc(O)c(N(C)CCO)cc32)=CC1=O
inactive: [9] 101 % of control | [10] 99 % of control | [11] 105 % of control

O=C(O)c1cocc1C(=O)O
inactive: [20] 99 % of control | [21] 86 % of control

O=C1/C(=C/c2ccc(F)cc2)SC(=S)N1c1ccc(Cl)c(Cl)c1
inactive: [8] 91 % of control and 95 % of control | [14] 104 % of control and 91 % of control and 94 % of control | dose: 100.0 mg/kg/injection, schedule: Q01DX009 (ip), vehicle: saline 100 % of control and 94 % of control | [15] 108 % of control and 124 % of control and 91 % of control

NC(=S)C1OC(COC(=O)c2ccccc2)C(OC(=O)c2ccccc2)C1OC(=O)c1ccccc1 (centres undefined)
inactive: [1] 96 % of control | [2] 94 % of control | [3] 102 % of control

O=C(Nc1ccc(Cl)cc1)OCC12COCN1COC2
inactive: [1] 87 % of control | [2] 95 % of control
